This passage reports EC50 results from ChEMBL document CHEMBL1135900, “Toward selective ERbeta agonists for central nervous system disorders: synthesis and characterization of aryl benzthiophenes” (J Med Chem, 2002).

Assay [1] has as its target T1, Estrogen receptor (Homo sapiens, UniProt P03372).
T1 sequence (P03372 whole entry): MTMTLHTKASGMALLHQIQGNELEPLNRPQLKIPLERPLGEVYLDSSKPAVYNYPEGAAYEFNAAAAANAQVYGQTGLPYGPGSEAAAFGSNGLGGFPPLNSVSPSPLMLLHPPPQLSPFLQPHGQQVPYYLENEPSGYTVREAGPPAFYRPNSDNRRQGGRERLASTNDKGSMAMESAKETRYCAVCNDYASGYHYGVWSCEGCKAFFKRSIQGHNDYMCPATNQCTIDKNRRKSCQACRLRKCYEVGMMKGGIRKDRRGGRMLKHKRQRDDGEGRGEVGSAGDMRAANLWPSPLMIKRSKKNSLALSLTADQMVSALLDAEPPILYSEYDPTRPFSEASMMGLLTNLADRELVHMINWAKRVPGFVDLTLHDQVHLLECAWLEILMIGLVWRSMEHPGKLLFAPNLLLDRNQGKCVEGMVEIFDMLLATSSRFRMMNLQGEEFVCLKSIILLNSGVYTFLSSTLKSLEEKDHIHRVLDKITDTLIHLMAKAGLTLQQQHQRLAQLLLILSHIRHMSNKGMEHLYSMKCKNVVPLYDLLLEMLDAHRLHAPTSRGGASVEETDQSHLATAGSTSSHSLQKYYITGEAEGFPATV
Description: Inhibition of [3H]17-beta-estradiol binding to human recombinant Estrogen receptor alpha.

The target of assay [2] is T2, Estrogen receptor beta (Homo sapiens, UniProt Q92731). As to the kind of experiment: Agonist activity in transcriptional activation assay in SH-SY5Y neuroblastoma cells expressing Estrogen receptor beta. Type of assay: functional, cell-based.
T2 sequence (Q92731 whole entry): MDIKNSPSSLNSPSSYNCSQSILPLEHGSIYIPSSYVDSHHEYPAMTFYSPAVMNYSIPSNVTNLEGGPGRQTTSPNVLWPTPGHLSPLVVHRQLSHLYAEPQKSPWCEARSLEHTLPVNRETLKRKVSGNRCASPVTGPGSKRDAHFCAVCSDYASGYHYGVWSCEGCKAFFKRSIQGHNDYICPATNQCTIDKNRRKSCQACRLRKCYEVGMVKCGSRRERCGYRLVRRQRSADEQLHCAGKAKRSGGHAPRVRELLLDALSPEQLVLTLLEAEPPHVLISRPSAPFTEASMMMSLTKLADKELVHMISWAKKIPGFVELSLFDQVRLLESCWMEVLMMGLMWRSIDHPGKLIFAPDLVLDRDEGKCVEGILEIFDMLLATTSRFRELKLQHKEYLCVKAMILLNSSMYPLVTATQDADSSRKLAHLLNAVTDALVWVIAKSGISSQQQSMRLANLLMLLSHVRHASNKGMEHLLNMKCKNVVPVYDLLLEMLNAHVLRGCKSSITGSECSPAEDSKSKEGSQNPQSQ
The target of assay [3] is T2, Estrogen receptor beta.
Description: Inhibition of [3H]17-beta-estradiol binding to human recombinant Estrogen receptor beta.
The target of assay [4] is T2, Estrogen receptor beta. The source holds these as a separate data set.
Description: Activation of estrogen response element in HeLa cells stably transfected with human Estrogen receptor beta.
Assay [5] has as its target T1, Estrogen receptor. This is another data set of the same source.
Description: Activation of estrogen response element in HeLa cells stably transfected with human Estrogen receptor alpha.

The structures appear in SMILES notation.

For `Oc1ccc2cc(-c3ccc(O)c(F)c3)sc2c1`, the concentration for a half-maximal effect (EC50) in assay [1] was 1030 nM; in assay [2], 13 nM; in assay [3], 115 nM; in assay [4] it was 32 nM; in assay [5], 138 nM.
The like results for `Cc1cc(O)ccc1-c1cc2ccc(O)cc2s1` were, in that order, 341 nM, 16 nM, 129 nM, 15 nM and 48 nM.
Take `CCCc1cc(-c2cc3ccc(O)cc3s2)ccc1O`: the 50% effective concentration (EC50) in assay [1] is greater than 10000 nM; in assay [2], 257 nM; in assay [3], 3940 nM; in assay [4], 186 nM; in assay [5] it was 162 nM.
For `Cc1cc(-c2cc3c(O)cc(O)cc3s2)ccc1O`, the EC50 is greater than 10000 nM in assay [1], greater than 10000 nM in assay [3], greater than 1000 nM in assay [4] and greater than 1000 nM in assay [5].
Regarding `CCc1cc(-c2cc3ccc(O)cc3s2)ccc1O`, the EC50 in assay [1] came to 7440 nM; in assay [3] it was 4710 nM; in assay [4], 257 nM; in assay [5] it was 191 nM.
For `Cc1ccc(-c2cc3ccc(O)cc3s2)cc1`, the EC50 was greater than 10000 nM in assay [1]; 120 nM in assay [2]; greater than 10000 nM in assay [3]; 174 nM in assay [4]; 178 nM in assay [5].
`Oc1cccc(-c2cc3ccc(O)cc3s2)c1`: the EC50 in assay [1] came to 2210 nM; in assay [3], 740 nM; in assay [4], 245 nM; in assay [5], 269 nM.
In the case of `Oc1ccc(-c2cc3ccc(O)cc3s2)cc1` [RALOXIFENE CORE], the values for the concentration giving a half-maximal response (EC50) in assay [2], in assay [3] and in assay [4] were 10 nM, 114 nM and 17 nM, respectively.
Regarding `Cc1cc(-c2cc3ccc(O)cc3s2)ccc1O`, the 50% effective concentration (EC50) in assay [1] was 3650 nM; in assay [3] it was 1830 nM; in assay [4] it was 302 nM; in assay [5], 148 nM.
Consider `Oc1ccc2cc(-c3ccc(O)c(O)c3)sc2c1`, for which the concentration for a half-maximal effect (EC50) in assay [1] came out at 4980 nM; in assay [3], 249 nM; in assay [4] it was 525 nM; in assay [5], 363 nM.
The matching figures for `Oc1cc(O)c2cc(-c3ccc(O)c(F)c3)sc2c1`: greater than 10000 nM, 7470 nM, greater than 1000 nM and 1000 nM.
As to `Oc1ccc2cc(-c3ccccc3)sc2c1`, the concentration giving a half-maximal response (EC50) is 3710 nM in assay [1]; 69 nM in assay [2]; 4310 nM in assay [3]; 166 nM in assay [4]; 209 nM in assay [5].
As for `CC(=O)c1cc(-c2cc3ccc(O)cc3s2)ccc1O`, the EC50 in assay [1] is greater than 10000 nM; in assay [3], greater than 10000 nM; in assay [4], greater than 1000 nM; in assay [5], greater than 1000 nM.
